Data from patent US10526327B2, “Histone demethylase inhibitors” (CELGENE QUANTICEL RESEARCH, INC., priority 2013, dated 2020).

Target: T1, JMJD2C (Homo sapiens, UniProt Q9H3R0)
T1 construct: purchased BPS Bioscience 50105
T1 sequence (Q9H3R0 2-372): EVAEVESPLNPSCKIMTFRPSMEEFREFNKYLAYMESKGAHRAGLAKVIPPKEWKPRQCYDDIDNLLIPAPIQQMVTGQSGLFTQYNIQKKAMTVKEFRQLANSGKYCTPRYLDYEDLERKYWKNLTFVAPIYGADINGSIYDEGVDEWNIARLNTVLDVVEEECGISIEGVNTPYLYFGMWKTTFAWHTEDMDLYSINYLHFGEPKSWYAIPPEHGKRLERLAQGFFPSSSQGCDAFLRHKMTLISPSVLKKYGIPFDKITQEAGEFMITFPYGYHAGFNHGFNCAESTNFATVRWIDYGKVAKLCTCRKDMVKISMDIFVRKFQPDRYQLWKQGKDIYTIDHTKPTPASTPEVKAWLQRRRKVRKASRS
Experiment: JMJD2C in vitro enzyme inhibition assay (TR-FRET)
Assay type: biochemical
Outline: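 Baculovirus-expressed human JMJD2C (AA 2-372) at 0.3 nM demethylated 300 nM biotin-H3K9me3 peptide with 2 μM alpha-ketoglutarate in HEPES pH 7.3 containing ascorbate and Fe(II), 30 min at room temperature. EDTA-stopped product was read by TR-FRET with Eu-anti-H3K9me2 and streptavidin-APC; 665/615 ratios from 11-point dilutions gave IC50.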

Structure (SMILES) | IC50 [nM]
Oc1nc(OCc2coc3ccccc23)nc2cnccc12 [Example 193, 2-(1-benzofuran-3-ylmethoxy)pyrido[3,4-d]pyrimidin-4-ol] | ≤ 100
Oc1nc(OCCOCC(F)(F)F)nc2cnccc12 [Example 23, 2-[2-(2,2,2-trifluoroethoxy)ethoxy]pyrido[3,4-d]pyrimidin-4-ol] | 100 to 1000
Oc1nc(OCc2cc(F)ccc2F)nc2cnccc12 [Example 182, 2-[(2,5-difluorophenyl)methoxy]pyrido[3,4-d]pyrimidin-4-ol] | ≤ 100
CC(C)OCCOc1nc(O)c2ccncc2n1 [Example 29, 2-(2-propan-2-yloxyethoxy)pyrido[3,4-d]pyrimidin-4-ol] | 100 to 1000
CC(C)Oc1nc(O)c2ccncc2n1 [Example 1, 2-propan-2-yloxy-3H-pyrido[3,4-d]pyrimidin-4-one] | 100 to 1000
Oc1nc(OC2CCc3ccccc32)nc2cnccc12 (stereo not drawn) [Example 192, 2-(2,3-dihydro-1H-inden-1-yloxy)pyrido[3,4-d]pyrimidin-4-ol] | 1000 to 10000
Oc1nc(Oc2ccccc2)nc2cnccc12 [Example 34, 2-phenoxypyrido[3,4-d]pyrimidin-4-ol] | 100 to 1000
Oc1nc(OCC2CCOC2)nc2cnccc12 (stereo not drawn) [Example 27, 2-(oxolan-3-ylmethoxy)pyrido[3,4-d]pyrimidin-4-ol] | 100 to 1000
Oc1nc(OCc2ccccc2-c2ccccc2)nc2cnccc12 [Example 185, 2-[(2-phenylphenyl)methoxy]pyrido[3,4-d]pyrimidin-4-ol] | 100 to 1000
Oc1nc(OC2CCOc3ccccc32)nc2cnccc12 (stereo not drawn) [Example 197, 2-(3,4-dihydro-2H-1-benzopyran-4-yloxy)pyrido[3,4-d]pyrimidin-4-ol] | ≤ 100
Oc1nc(OCC2COc3ccccc32)nc2cnccc12 (stereo not drawn) [Example 194, 2-(2,3-dihydro-1-benzofuran-3-ylmethoxy)pyrido[3,4-d]pyrimidin-4-ol] | 1000 to 10000
CC(CO)COc1nc(O)c2ccncc2n1 (stereo not drawn) [Example 25, 2-(3-hydroxy-2-methylpropoxy)pyrido[3,4-d]pyrimidin-4-ol] | 100 to 1000
Oc1nc(OCc2cccc(F)c2F)nc2cnccc12 [Example 181, 2-[(2,3-difluorophenyl)methoxy]pyrido[3,4-d]pyrimidin-4-ol] | ≤ 100
CC(C)(O)CCOc1nc(O)c2ccncc2n1 [Example 24, 2-(3-hydroxy-3-methylbutoxy)pyrido[3,4-d]pyrimidin-4-ol] | 100 to 1000
CCOc1nc(O)c2ccncc2n1 [Example 2, 2-ethoxypyrido[3,4-d]pyrimidin-4-ol] | 100 to 1000
Oc1nc(OCC2CCc3ccccc3C2)nc2cnccc12 (stereo not drawn) [Example 191, 2-(1,2,3,4-tetrahydronaphthalen-2-ylmethoxy)pyrido[3,4-d]pyrimidin-4-ol] | ≤ 100
Oc1nc(OCCOCc2ccccc2)nc2cnccc12 [Example 30, 2-(2-phenylmethoxyethoxy)pyrido[3,4-d]pyrimidin-4-ol] | 100 to 1000
N#Cc1cccc(COc2nc(O)c3ccncc3n2)c1 [Example 32, 3-[(4-hydroxypyrido[3,4-d]pyrimidin-2-yl)oxymethyl]benzonitrile] | 100 to 1000

Structure (SMILES) | IC50 [nM]
Oc1nc(OC2CCCc3ccccc32)nc2cnccc12 (stereo not drawn) [Example 196, 2-(1,2,3,4-tetrahydronaphthalen-1-yloxy)pyrido[3,4-d]pyrimidin-4-ol] | 1000 to 10000
Oc1nc(OCC2CCCO2)nc2cnccc12 (stereo not drawn) [Example 26, 2-(oxolan-2-ylmethoxy)pyrido[3,4-d]pyrimidin-4-ol] | 100 to 1000
Cn1cnc(-c2nccc3c(=O)[nH]cnc23)c1 [Example 198, 8-(1-methylimidazol-4-yl)-3H-pyrido[3,4-d]pyrimidin-4-one] | 100 to 1000
Oc1nc(OCC2CCc3ccccc32)nc2cnccc12 (stereo not drawn) [Example 190, 2-(2,3-dihydro-1H-inden-1-ylmethoxy)pyrido[3,4-d]pyrimidin-4-ol] | ≤ 100
Oc1nc(OCc2ccccc2F)nc2cnccc12 [Example 178, 2-[(2-fluorophenyl)methoxy]pyrido[3,4-d]pyrimidin-4-ol] | ≤ 100
Oc1nc(OC2Cc3ccccc3C2)nc2cnccc12 [Example 189, 2-(2,3-dihydro-1H-inden-2-yloxy)pyrido[3,4-d]pyrimidin-4-ol] | ≤ 100
Oc1nc(OCc2cccc(F)c2)nc2cnccc12 [Example 179, 2-[(3-fluorophenyl)methoxy]pyrido[3,4-d]pyrimidin-4-ol] | ≤ 100
Oc1nc(OCc2ccc3ccccc3c2)nc2cnccc12 [Example 187, 2-(naphthalen-2-ylmethoxy)pyrido[3,4-d]pyrimidin-4-ol] | 1000 to 10000
Oc1nc(OCc2cccc(-c3ccccc3)c2)nc2cnccc12 [Example 186, 2-[(3-phenylphenyl)methoxy]pyrido[3,4-d]pyrimidin-4-ol] | 100 to 1000
Oc1nc(OCc2cccc3ccccc23)nc2cnccc12 [Example 184, 2-(naphthalen-1-ylmethoxy)pyrido[3,4-d]pyrimidin-4-ol] | 100 to 1000
Oc1nc(OCc2ccc(F)cc2)nc2cnccc12 [Example 180, 2-[(4-fluorophenyl)methoxy]pyrido[3,4-d]pyrimidin-4-ol] | ≤ 100
Oc1nc(OCC2CCOc3ccccc32)nc2cnccc12 (stereo not drawn) [Example 195, 2-(3,4-dihydro-2H-1-benzopyran-4-ylmethoxy)pyrido[3,4-d]pyrimidin-4-ol] | ≤ 100
Oc1nc(OCC2CCCc3ccccc32)nc2cnccc12 (stereo not drawn) [Example 188, 2-(1,2,3,4-tetrahydronaphthalen-1-ylmethoxy)pyrido[3,4-d]pyrimidin-4-ol] | ≤ 100
CC(=O)N(C)CCOc1nc(O)c2ccncc2n1 [Example 28, N-[2-(4-hydroxypyrido[3,4-d]pyrimidin-2-yl)oxyethyl]-N-methylacetamide] | 100 to 1000
Cn1ccc(COc2nc(O)c3ccncc3n2)n1 [Example 33, 2-[(1-methylpyrazol-3-yl)methoxy]pyrido[3,4-d]pyrimidin-4-ol] | ≤ 100
Oc1nc(OCc2ccccc2C(F)(F)F)nc2cnccc12 [Example 177, 2-{[2-(trifluoromethyl)phenyl]methoxy}pyrido[3,4-d]pyrimidin-4-ol] | ≤ 100
Oc1nc(OCc2c(F)cccc2F)nc2cnccc12 [Example 183, 2-[(2,6-difluorophenyl)methoxy]pyrido[3,4-d]pyrimidin-4-ol] | 100 to 1000
O=C(NCCOc1nc(O)c2ccncc2n1)c1ccccc1 [Example 31, N-[2-(4-hydroxypyrido[3,4-d]pyrimidin-2-yl)oxyethyl]benzamide] | 100 to 1000
